Consider two compounds from ChEMBL document CHEMBL4665806, “Structure-based optimisation of orally active & reversible MetAP-2 inhibitors maintaining a tight 'molecular budget'” (Bioorg Med Chem Lett, 2020).

Series [1] is described as follows: Intrinsic clearance in rat. The class given is ADME.
Series [2] is described as follows: Intrinsic clearance in human. The class given is ADME.
Series [3] is described as follows: Chromatographic hydrophobicity index, log D of the compound at pH 7.4. The class given is physicochemical. To be noted: buffer.
The subject of series [4] is Mus musculus. As to the kind of experiment: Antiinflammatory activity in anti-KLH treated mouse model of B-cell adaptive immunity assessed as inhibition of secondary response at […] mg/kg, po administered twice daily from day 21 to day 31 relative to control. Particulars: dose 3.0 mg/kg, time 10.0 day. The class given is functional, organism-based.
Series [5] deals with Mus musculus. Briefly: Antiinflammatory activity in antigen KLH-TNP- treated mouse model of B-cell adaptive immunity assessed as inhibition of secondary response at 3 mg/kg, po administered twice daily from day 21 to day 31 relative to control. To be noted: time 10 day. Further details: scale not given: the % may be the effect or the level left. The class given is functional.

Series [6] concerns Mus musculus. Briefly: Antiinflammatory activity in antigen KLH-TNP- treated mouse model of B-cell adaptive immunity assessed as inhibition of secondary response at 10 mg/kg, po administered twice daily from day 21 to day 31 relative to control. Type of series: functional. Further details: scale not given: the % may be the effect or the level left. Particulars: time 10 day.
Series [7] relates to Mus musculus. Briefly: Antiinflammatory activity in antigen KLH-TNP- treated mouse model of B-cell adaptive immunity assessed as inhibition of secondary response at 30 mg/kg, po administered twice daily from day 21 to day 31 relative to control. To be noted: dose 3 mg/kg; time 10 day. The class given is functional. Further details: scale not given: the % may be the effect or the level left.

In series [8] the test system is Mus musculus. As to the kind of experiment: Antiinflammatory activity in antigen KLH-TNP- treated po dosed mouse model of B-cell adaptive immunity assessed as inhibition of secondary response administered twice daily from day 21 to day 31. Particulars: dose mg/kg 3-30, time 10.0 day. The class given is functional, organism-based.
A short description of series [9]: Oral bioavailability in mouse at 10 mg/kg. Type of series: ADME, organism-based. Particulars: in vivo.
Series [10] can be described thus: Volume of distribution at steady state in po dosed mouse. Type of series: ADME, organism-based. Particulars: in vivo.
A short description of series [11]: Half life in po dosed mouse. To be noted: in vivo. The class given is ADME, organism-based.
A short description of series [12]: Clearance in po dosed mouse. To be noted: in vivo. The class given is ADME, organism-based.
Series [13] in a line: Solubility of the compound. The class given is physicochemical.
The target of series [14] is Methionine aminopeptidase 2 (Mus musculus, UniProt O08663). Briefly: Inhibition of MetAP2 in mouse B cells assessed as reduction in IgG secretion. Type of series: cell-based, B-cell.
Methionine aminopeptidase 2, sequence (O08663 whole entry): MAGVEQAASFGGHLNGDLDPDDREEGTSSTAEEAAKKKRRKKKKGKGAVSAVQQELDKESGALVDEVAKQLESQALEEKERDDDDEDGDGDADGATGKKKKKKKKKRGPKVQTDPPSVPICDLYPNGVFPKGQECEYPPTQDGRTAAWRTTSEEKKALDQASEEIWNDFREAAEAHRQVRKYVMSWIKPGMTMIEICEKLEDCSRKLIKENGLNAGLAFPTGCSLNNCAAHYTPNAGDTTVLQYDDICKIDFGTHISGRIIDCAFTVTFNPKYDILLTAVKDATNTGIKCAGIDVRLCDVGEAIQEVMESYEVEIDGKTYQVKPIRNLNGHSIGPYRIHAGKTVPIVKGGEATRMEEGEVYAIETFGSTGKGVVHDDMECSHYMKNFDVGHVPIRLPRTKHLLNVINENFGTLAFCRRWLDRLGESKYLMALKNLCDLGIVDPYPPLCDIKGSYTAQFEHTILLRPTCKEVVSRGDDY

The structures appear in SMILES notation. Converted amounts (≈) assume the structure as drawn. The source made the active and inactive calls.

In general, CLint scaled refers to a measure of how fast metabolising enzymes remove a compound, apart from limits set by blood flow. What is called chromatographic logD is a lipophilicity value derived from retention on a column. `CC(C)Oc1cc(N2CCNCC2)ccc1-c1c(C(N)=O)[nH]c2cc(F)c(Cl)cc12`: the CLint scaled in series [1] and in series [2] was under 1 mL/min/kg in each case. Moreover, in series [3], the chromatographic logD was 3.1.
What is called bioavailability is dose-corrected exposure relative to a reference, in per cent. Usually half-life stands for the time needed for the level to fall by half in the phase considered. A word on the CL/F: it is clearance divided by bioavailability, as obtained after extravascular dosing. As usually defined, the solubility is the dissolved amount per volume that the medium holds. What is called IC50 is the midpoint of a concentration-inhibition curve. Regarding `CC(C)Oc1cc(N2CCNCC2)ccc1-c1c(C(N)=O)[nH]c2cc(F)c(F)cc12`, the outcome with Mus musculus [4] was Active. Further, the Activity with Mus musculus [5] was 15%; with Mus musculus [6] it was 39%; in the series with Mus musculus [7] it was 89%; with Mus musculus [8], “Dose-dependent effect”. In addition, in [9], the bioavailability was 89%. Also, the Vdss in series [10] turned out to be 7.7 L/kg. Further, the half-life in series [11] was 4.5 h. In addition, the apparent clearance CL/F in series [12] amounted to 45 mL/min/kg. The intrinsic clearance (CLint scaled) in series [1] and in series [2] was under 1 mL/min/kg throughout. Also, in [3], the chromatographic logD was determined as 2.8. The amount in solution in series [13] (solubility) came to 629 µg/mL (≈ 1520 µM). The IC50 in [14] is 39.8 nM.
